This test deals with T1, HSA (human serum albumin) (Homo sapiens, UniProt P02768).
T1 construct: gene ALB; commercial HSA (Shanghai Yuanye); amine-coupled to CM5 chip
Nature of the test: SPR (Biacore T200, immobilized protein on CM5). Format: binding. A general note: In SPR one partner is held on a chip, and binding of the other changes the refractive index at the surface.

Structures are written as SMILES.

For orientation: Kd means the concentration at which binding is half-saturated. The low end stands for tighter binding, the high end for weaker binding.

T1 sequence (P02768 25-609): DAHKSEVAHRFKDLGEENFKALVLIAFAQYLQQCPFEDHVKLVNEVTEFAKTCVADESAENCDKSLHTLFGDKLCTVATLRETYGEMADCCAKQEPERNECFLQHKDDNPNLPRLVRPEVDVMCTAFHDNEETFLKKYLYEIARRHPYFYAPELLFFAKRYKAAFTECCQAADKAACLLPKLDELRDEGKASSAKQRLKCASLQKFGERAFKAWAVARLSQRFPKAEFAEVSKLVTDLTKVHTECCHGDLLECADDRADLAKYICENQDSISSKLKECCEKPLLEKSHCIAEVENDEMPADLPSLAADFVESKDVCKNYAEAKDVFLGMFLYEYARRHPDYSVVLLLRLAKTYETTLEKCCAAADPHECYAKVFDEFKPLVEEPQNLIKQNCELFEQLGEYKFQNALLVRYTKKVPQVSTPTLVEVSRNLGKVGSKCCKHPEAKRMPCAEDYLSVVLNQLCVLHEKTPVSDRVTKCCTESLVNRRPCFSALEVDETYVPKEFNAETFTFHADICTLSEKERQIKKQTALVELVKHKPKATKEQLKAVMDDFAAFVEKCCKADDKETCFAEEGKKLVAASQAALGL

Regarding `C=Cc1c(C)c2cc3nc(c(CC(=O)O)c4[nH]c(cc5nc(cc1[nH]2)C(C)=C5CC)c(C)c4C(=O)O)[C@@H](CCC(=O)O)[C@@H]3C` [Ce6], the Kd was determined as 2120 nM.

For the origin of these results see article PMC12133102, “Deciphering the Physical Binding Mechanism of Enzyme–Photosensitizer Facilitates Catalysis-Augmented Photodynamic Therapy” (Research, 2025).
